Laboratory results taken from the OPERA property sets (Mansouri et al. 2018).
Where a SMILES comes first, the peptide text is derived from it.

SMILES | logP
CC(C)C1(C)N=C(c2ncc(Br)cc2C(=O)O)NC1=O (stereo not drawn) | 1.19
CN1CC(O)N(C(=O)NCCCl)C1=O (stereo not drawn) | 0.71
CCCCCCCCCCCCCCc1ccccc1 | 9.95
O=c1nc(N=CN2CCCCC2)ccn1C1CC(O)C(CO)O1 (stereo not drawn) | -0.51
COc1ccc(C2=NC(C(=O)O)CS2)c(O)c1 (stereo not drawn) | 1.5
Cc1c(O)c(=O)ccn1CCCOC(=O)c1ccc(O)cc1 | 0.8
CC(C)NCC(O)COc1ccc(Cc2nc(Br)c[nH]2)cc1 (stereo not drawn) | 2.2
Brc1ccc(Br)c(N=C2NCCN2)c1 | 2.71
CC(C)C(N)C(=O)NCC(=O)NC(Cc1ccccc1)C(=O)NC(Cc1ccccc1)C(=O)O (stereo not drawn) (H-VGFF-OH; configuration not given here) | -0.51
COc1cc(S(C)=O)ccc1-c1cn2cc(N)cnc2n1 (stereo not drawn) | 0.37
O=C(NS(=O)(=O)c1cnccc1NC1CCCCCC1)N1CCCCC1 | 4.14
COc1ccc(CCNCC(O)COc2ccc(Cc3nc(C)c[nH]3)cc2)cc1OC (stereo not drawn) | 2.5
CC(C)(O)C1CCC2(C)CCCC(C)(O)C2C1 (stereo not drawn) | 3.04
O=C1C=C(N2CCCCC2)CN1c1ccc(Cl)cc1 | 3
Nc1ccc(S(=O)(=O)Nc2cccc3[nH]ccc23)cc1 | 1.41
O=C1C=C(N2CCCC2)CN1c1ccc(Cl)cc1 | 2.6
O=C(O)CCCCCON=C(c1ccccc1)c1ccncn1 | 2.66
CNC(C)Cc1ccc(N)cc1 (stereo not drawn) | 0.81
O=C(c1ccccn1)n1c(=O)[nH]cc(F)c1=O | -0.06
Cc1nn(-c2cc(CC(Cl)C(=O)O)c(Cl)cc2F)c(=O)n1C(F)F (stereo not drawn) | 3.36
CCON=C(C)c1cccc(Oc2nc(OC)cc(OC)n2)c1C(=O)OC | 2.96
CCOC(=O)c1cccc(CN)c1 | 1.44
O=[N+]([O-])c1ccc2c(c1)-c1ccccc1C2 | 3.99
Nc1nc(N)c2c(Cl)cccc2n1 | 1.72
CCCCC(C)N=C=S (stereo not drawn) | 3.94
COC(=O)c1cccc(C)c1S(=O)(=O)NC(=O)Nc1nc(OCC(F)(F)F)nc(N(C)C)n1 | 3.56
CCCc1nc(NCN2CCCC2=O)nc(N2CCOCC2)n1 | 1.62

SMILES | logP
CCC(C)NCc1cccc(S(=O)(=O)c2csc(S(N)(=O)=O)c2)c1 (stereo not drawn) | 2.13
O=C1c2ccccc2-c2nncc(-c3ccccc3)c21 | 2.8
COc1cc(OC)nc(Oc2cccc(C(F)(F)F)c2C(=O)O)n1 | 2.7
CCCOCCCNc1[nH]cnc2ncnc1-2 | 1.74
CNc1ccc2cc3ccc4c(c3nc2c1CO)COCN4 | 1.65
CN1CCN(CCn2nc3ccccc3n2)CC1 | 0.74
CCCc1c2c(cc3c(=O)cc(C(=O)O)oc13)CCCC2 | 4.2
COc1ccc2cc(C(C)C(=O)OCOC(C)=O)ccc2c1 (stereo not drawn) | 3.4
O=C1CCCc2nnc(-c3ccccc3)cc21 | 2.05
COc1ccc(C2=NC(C)(C(=O)O)CS2)c(O)c1OC (stereo not drawn) | 1.4
Nc1nnnn1-c1ccc(Cl)cc1Cl | 1.62
CCNC(=O)NS(=O)(=O)c1cnccc1Nc1ccccc1C | 3.06
CCCNC(=O)Cn1cccc(O)c1=O | -0.24
CNc1ccc(S(=O)(=O)N(C)C)cc1 | 1.43
CCCCCI | 3.62
CC1(C)C2Cc3ssc(=S)c3C1C2 (stereo not drawn) | 3.7
CCCN(CCCCC(NC(C)=O)C(=O)NCc1ccccc1)C(=O)N(CCCl)N=O (stereo not drawn) | 1.99
CCCCNc1ccncc1S(=O)(=O)NC(=NC#N)NC(C)C | 1.05
CSCC[C@H](N)C(=O)N1CCC[C@H]1C(=O)O (H-Met-Pro-OH) | -2.52
CC(C)CC(N)C(=O)NC(CC(C)C)C(=O)NC(C)C(=O)NC(Cc1ccccc1)C(=O)O (stereo not drawn) (H-LLAF-OH; configuration not given here) | -1
CN1C(C(=O)Nc2ccccn2)=C(O)c2sc(Cl)cc2S1(=O)=O | 2.62
CCNN=Nc1ccc(C(N)=O)cc1 | 1.19
CCC(C)NC(=O)NN (stereo not drawn) | -0.84
CSc1ccc2nc(-c3ccc(N)cc3)cn2c1 | 2.9
O=C(O)CCCCON=C(c1cncnc1)c1cccc(C(F)(F)F)c1 | 3.26
O=C(NS(=O)(=O)c1cnccc1NC1CCCCCC1)N1CCCCCC1 | 4.43
